This passage reports IC50 and inhibition results from patent US20240132449A1, “HETEROCYCLIC COMPOUNDS AND METHODS OF USE THEREOF” (1cBio, Inc., priority 2022, published 2024).

The target of one assay is PARP1 (Homo sapiens, UniProt P09874). Briefly: PARP1 fluorescence polarization binding assay. As to conditions: binding IC50, GST-tagged PARP1 20 nM, PARPi-FL 3 nM. As for the experimental part:
Compounds of the present disclosure were tested in a PARP1 fluorescence polarization binding assay at Pharmaron (Beijing, P.R.China). In this biochemical assay, binding of test compound to recombinant human PARP1 reduces the amount of binding of a fluorescent probe, and consequently reduces the detected level of fluorescence polarization. Test compound stock solutions were prepared in DMSO and then serially diluted into 10 concentrations by 3-fold dilution in a 384-well plate using a TECAN EVO200. 60 nL of each dilution was transferred to the plate using an Echo550 (Labcyte), and then 10 μL 40 nM GST-tagged PARP1 (BPS Bioscience, Cat #80501), diluted in assay buffer (50 mM Tris pH 8.0, 0.001% Triton X-100, 10 mM MgCl2, 150 mM NaCl), was added to the plate. After a centrifugation at 1000 rpm for 1 min, the assay plate was incubated for 30 min at RT. 10 μL 6 nM PARPi-FL (TOCRIS, Cat #6461), diluted using assay buffer, was then added to the plate. The final concentrations of PARP1 and PARPi-FL were 20 nM and 3 nM, respectively, in a total volume of 20 μL. After a centrifugation at 1000 rpm for 1 min, the assay plate was incubated for 4 h at RT. Samples in each well were read using an Envision instrument (Perkin-Elmer; Ex=480 nm Em=FITC FP-P pol 535 nm & FITC FP-S pol 535 nm). Percent inhibition was calculated from mP values using Inhibition (%)=[1−(mPc−mPL)/(mPH−mPL)]×100%, where mPc, mPL, and mPH are the mP values of test compound, Low controls, and High controls, respectively. Binding IC50 values were calculated using XLFit (equation 201: y=A+((B−A)/(1+((x/C)^D))), where A=bottom, B=top, C=IC50, and D=slope) with a floating top and bottom for curves. Binding IC50 values are shown in Table A and are presented in ranges, in which “+++”<100 nM, 100 nM≤“++”<3000 nM, and “+”≥3000 nM.
On the technique in general: Fluorescence polarisation rises when a labelled molecule tumbles more slowly, as on binding a larger partner.

For the next assay, the target named is recombinant human PARP2 (Homo sapiens, UniProt Q9UGN5). Briefly: PARP2 fluorescence polarization binding assay. The settings on record: for IC50: binding IC50, GST-tagged PARP2 20 nM, PARPi-FL 3 nM; for inhibition at 10 µM: read-out: PARP2 % inh at 10 μM. As to the method: Compounds of the present disclosure were tested in a PARP2 fluorescence polarization binding assay at Pharmaron (Beijing, P.R. China). In this biochemical assay, binding of test compound to recombinant human PARP2 reduces the amount of binding of a fluorescent probe, and consequently reduces the detected level of fluorescence polarization. Test compound stock solutions were prepared in DMSO and then serially diluted into 10 concentrations by 3-fold dilution in a 384-well plate using a TECAN EVO200. Alternatively, a single concentration was prepared. 60 nL of each dilution was transferred to the plate using an Echo550 (Labcyte), and then 10 μL 40 nM GST-tagged PARP2 (BPS Bioscience, Cat #80502), diluted in assay buffer (50 mM Tris pH 8.0, 0.001% Triton X-100, 10 mM MgCl2, 150 mM NaCl), was added to the plate. After a centrifugation at 1000 rpm for 1 min, the assay plate was incubated for 30 min at RT. 10 μL 6 nM PARPi-FL (TOCRIS, Cat #6461), diluted using assay buffer, was then added to the plate. […] After a centrifugation at 1000 rpm for 1 min, the assay plate was incubated for 4 h at RT. Samples in each well were read using an Envision instrument (Perkin-Elmer; Ex=480 nm Em=FITC FP-P pol 535 nm & FITC FP-S pol 535 nm). […] Binding IC50 values were calculated using XLFit (equation 201: […])^D))), where A=bottom, B=top, C=IC50, and D=slope) with a floating top and bottom for curves.
Chain of recombinant human PARP2 (Q9UGN5 whole entry): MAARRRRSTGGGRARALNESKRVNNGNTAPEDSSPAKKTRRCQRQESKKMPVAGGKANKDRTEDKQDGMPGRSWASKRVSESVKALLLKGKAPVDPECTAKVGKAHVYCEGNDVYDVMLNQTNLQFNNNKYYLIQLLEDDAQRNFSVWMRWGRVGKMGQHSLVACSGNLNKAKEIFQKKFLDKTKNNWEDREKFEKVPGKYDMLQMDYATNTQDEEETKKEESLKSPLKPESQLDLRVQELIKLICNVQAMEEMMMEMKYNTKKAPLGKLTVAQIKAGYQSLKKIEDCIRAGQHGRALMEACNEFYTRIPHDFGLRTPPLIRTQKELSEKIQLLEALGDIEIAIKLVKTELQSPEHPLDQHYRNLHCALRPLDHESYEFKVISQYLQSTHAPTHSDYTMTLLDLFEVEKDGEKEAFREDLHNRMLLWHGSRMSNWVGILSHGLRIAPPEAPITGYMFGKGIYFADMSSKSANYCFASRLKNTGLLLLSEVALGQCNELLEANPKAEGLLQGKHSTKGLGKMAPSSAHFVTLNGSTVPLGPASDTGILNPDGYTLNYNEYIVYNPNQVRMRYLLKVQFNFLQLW

In assay [1] the test system is DLD-1 wild-type colorectal adenocarcinoma cells. The assay is described as follows: Cell viability assay (Cell Titer-Glo), DLD-1 wild-type. As to conditions: Homo sapiens, DLD-1, 168 h, 7 days incubation; for inhibition at 10 µM: read-out: DLD-1 wild-type % inh at 10 μM; for IC50: 50 cells/well. The class given is cell-based. As to the method:
(§1) Compounds of the present disclosure were tested for their effects on the viability of cancer cells. DLD-1 wild-type and DLD-1 BRCA2(−/−) colorectal adenocarcinoma cells, an isogenic pair of cell lines differing in the presence and absence, respectively, of both BRCA2 alleles, were used. The cells were harvested during the logarithmic growth period, counted, and seeded at 50 cells/well for DLD-1 wild-type and 200 cells/well for DLD-1 BRCA2(−/−) in a 384-well cell culture plate. After seeding, cells were incubated at 37° C., 5% CO2 overnight. Cells were treated with serially diluted test compounds at 10 concentrations (e.g., from 1.5 nM-30 μM) for generation of dose response curves, or at a single concentration. The plate was further incubated for another 7 days in a humidified incubator at 37° C. and 5% CO2. Cell viability was assessed by luminescence measurement after addition of Cell Titer-Glo reagent (Promega, Madison, Wis.) according to the manufacturer's instructions. Cell viability IC50 values were calculated using XLFit, equation 201: y=A+((B−A)/(1+((x/C)^D))), where A=bottom, B=top, C=IC50, and D=slope. IC50 values are shown in Table B and are presented in ranges, in which “+++”<300 nM, 300 nM≤“++”<3000 nM, and “+”≥3000 nM. Values for percent inhibition at 10 μM are also shown in Table B and are presented in ranges, in which “***”≥67%, 33%≤“**”<67%, and “*”<33%. Effects of the test compounds on the viability of other cell lines such as MDA-MB-436, MDA-MB-231, SUM149PT, HCC1395, and UWB1.289 are determined in an analogous method.

Assay [2] deals with DLD-1 BRCA2(−/−) colorectal adenocarcinoma cells. The assay is described as follows: Cell viability assay (Cell Titer-Glo), DLD-1 BRCA2(−/−). The class given is cell-based. As to conditions: Homo sapiens, DLD-1, 168 h; 7 days incubation, 200 cells/well. As for the experimental part: as §1

Where a name gives a salt, the structure may show the parent alone. Bounds are passed on as bounds.

Chain of PARP1 (P09874 whole entry): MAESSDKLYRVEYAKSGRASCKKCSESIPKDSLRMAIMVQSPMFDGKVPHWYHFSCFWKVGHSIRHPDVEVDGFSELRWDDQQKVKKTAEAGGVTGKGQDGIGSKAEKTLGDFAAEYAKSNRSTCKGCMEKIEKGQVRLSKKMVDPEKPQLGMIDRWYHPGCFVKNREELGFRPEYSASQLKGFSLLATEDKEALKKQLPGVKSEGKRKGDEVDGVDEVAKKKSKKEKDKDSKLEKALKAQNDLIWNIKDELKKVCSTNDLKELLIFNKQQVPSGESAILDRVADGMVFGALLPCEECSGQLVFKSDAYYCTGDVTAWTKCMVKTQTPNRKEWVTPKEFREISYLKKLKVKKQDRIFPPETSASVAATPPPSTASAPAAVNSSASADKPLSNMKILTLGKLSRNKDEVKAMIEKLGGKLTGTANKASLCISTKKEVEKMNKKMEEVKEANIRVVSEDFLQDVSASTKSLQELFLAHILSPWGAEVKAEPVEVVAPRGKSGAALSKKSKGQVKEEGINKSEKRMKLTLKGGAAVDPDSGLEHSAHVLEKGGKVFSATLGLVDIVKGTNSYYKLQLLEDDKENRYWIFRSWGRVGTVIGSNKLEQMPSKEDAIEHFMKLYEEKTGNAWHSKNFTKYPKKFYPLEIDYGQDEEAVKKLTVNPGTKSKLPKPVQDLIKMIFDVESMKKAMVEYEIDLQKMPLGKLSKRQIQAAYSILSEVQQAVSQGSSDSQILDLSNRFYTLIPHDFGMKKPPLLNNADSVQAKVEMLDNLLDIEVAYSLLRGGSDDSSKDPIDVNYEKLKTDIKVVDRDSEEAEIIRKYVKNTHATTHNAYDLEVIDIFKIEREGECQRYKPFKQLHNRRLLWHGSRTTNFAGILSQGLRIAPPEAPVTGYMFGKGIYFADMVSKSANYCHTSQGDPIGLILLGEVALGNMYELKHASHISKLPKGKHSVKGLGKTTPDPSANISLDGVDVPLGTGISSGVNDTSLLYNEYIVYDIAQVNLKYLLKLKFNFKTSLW

As usually defined, the IC50 is the concentration that inhibits the measured activity by half. On PARP1, `CCn1c(=O)[nH]c2cc(CN3CCN(c4ccc(CNC)nc4C)CC3)sc2c1=O` [Compound 529, 3-ethyl-6-((4-(2-methyl-6-((methylamino)methyl)pyridin-3-yl)piperazin-1-yl)methyl)thieno[3,2-d]pyrimidine-2,4(1H,3H)-dione] displayed an IC50 of more than 3 µM.

Take `CCn1c(=O)[nH]c2cc(C(=O)N3CCN(c4ccc(C(=O)NC)nc4)CC3)ccc2c1=O` [Compound 130, 5-(4-(3-ethyl-2,4-dioxo-1,2,3,4-tetrahydroquinazoline-7-carbonyl)piperazin-1-yl)-N-methylpicolinamide]: the IC50 at recombinant human PARP2 is more than 3 µM; on PARP1, less than 0.1 µM. In addition, the inhibition at 10 µM on recombinant human PARP2 fell in the range of 33 to 67%.

On to `CCn1c(=O)[nH]c2cc(CN3CCN(c4ccc(-n5cccn5)nc4C)CC3)sc2c1=O` [Compound 306, 3-ethyl-6-({4-[2-methyl-6-(pyrazol-1-yl)pyridin-3-yl]piperazin-1-yl}methyl)-1H-thieno[3,2-d]pyrimidine-2,4-dione], for which the IC50 on PARP1 is less than 0.1 µM.

On to `CCn1c(=O)[nH]c2cc(CN3CCN(c4ccc(C(=O)NC)nc4)CC3)ccc2c1=S` [Compound 40, 5-(4-((3-ethyl-2-oxo-4-thioxo-1,2,3,4-tetrahydroquinazolin-7-yl)methyl)piperazin-1-yl)-N-methylpicolinamide formate], for which the IC50 at recombinant human PARP2 is more than 3 µM; in assay [1], more than 3 µM; in assay [2], 0.3 to 3 µM; on PARP1 it was less than 0.1 µM. The inhibition at 10 µM was 33 to 67% on recombinant human PARP2 and less than 33% in assay [1].

`CCn1c(=O)[nH]c2cc(CN3CC(Oc4ccc(C(=O)NC)nc4C)C3)sc2c1=O` [Compound 328]: on PARP1, the IC50 was in the range of 0.1 to 3 µM.

With `CCC(=O)c1ccc(N2CCN(Cc3cc4[nH]c(=O)n(CC)c(=O)c4s3)CC2)c(C)n1` [Compound 326, 3-ethyl-6-((4-(2-methyl-6-propionylpyridin-3-yl)piperazin-1-yl)methyl) thieno[3,2-d]pyrimidine-2,4(1H,3H)-dione formate], the IC50 is more than 3 µM at recombinant human PARP2, more than 3 µM in assay [1], more than 3 µM in assay [2] and less than 0.1 µM on PARP1. Further, the inhibition at 10 µM at recombinant human PARP2 is 33 to 67%; in assay [1], less than 33%.

`CNC(=O)c1ccc(N2CCN(Cc3ccc4c(=O)n(C5CC5)c(=O)[nH]c4c3)CC2)cn1` [Compound 5, 5-(4-((3-cyclopropyl-2,4-dioxo-1,2,3,4-tetrahydroquinazolin-7-yl)methyl)piperazin-1-yl)-N-methylpicolinamide]: the half-inhibitory concentration (IC50) is more than 3 µM at recombinant human PARP2, more than 3 µM in assay [1], more than 3 µM in assay [2] and less than 0.1 µM at PARP1. For the same compound, the values for the inhibition at 10 µM (at recombinant human PARP2; in assay [1]) were 33 to 67% and less than 33%, respectively.

For the compound `CNC(=O)c1ccc(N2CCN(Cc3ccc4c(=O)n(C(C)C)c(=O)[nH]c4c3)CC2)cn1` [Compound 4, 5-(4-((3-isopropyl-2,4-dioxo-1,2,3,4-tetrahydroquinazolin-7-yl)methyl)piperazin-1-yl)-N-methylpicolinamide], the IC50 on recombinant human PARP2 is more than 3 µM; in assay [1] it was more than 3 µM; in assay [2], more than 3 µM; on PARP1 it was less than 0.1 µM. The inhibition at 10 µM (at recombinant human PARP2; in assay [1]) was 33 to 67% throughout.

At PARP1, `CCn1c(=O)[nH]c2cc(CN3CCN(c4ccc(C(=O)N5CCCC5)nc4C)CC3)sc2c1=O` [Compound 526, 3-ethyl-6-[(4-{2-methyl-6-[(pyrrolidin-1-yl)carbonyl]pyridin-3-yl}piperazin-1-yl)methyl]-1H-thieno[3,2-d]pyrimidine-2,4-dione] came in with an IC50 of more than 3 µM.

Turning to `CCn1c(=O)[nH]c2cc(CN3CCN(c4ccc(-c5ncc[nH]5)nc4C)CC3)sc2c1=O` [Compound 357, 64(4-(6-(1H-imidazol-2-yl)-2-methylpyridin-3-yl)piperazin-1-yl) methyl)-3-ethylthieno[3,2-d]pyrimidine-2,4(1H,3H)-dione formate], the IC50 at PARP1 was less than 0.1 µM.

The compound `CCn1c(=O)[nH]c2cc(CN3CCN(c4ccc(C#N)cn4)CC3)sc2c1=O` [Compound 531] registered an IC50 at PARP1 of less than 0.1 µM.

As to `CCn1c(=O)[nH]c2sc(CN3CCN(c4ccc(C(=O)NC)nc4F)CC3)cc2c1=O` [Compound 530, 5-(4-((3-ethyl-2,4-dioxo-1,2,3,4-tetrahydrothieno[2,3-d]pyrimidin-6-yl)methyl)piperazin-1-yl)-6-fluoro-N-methylpicolinamide bis formate], on PARP1, the IC50 was less than 0.1 µM.

The compound `CCn1c(=O)[nH]c2sc(CN3CCN(c4ccc(C(=O)NC)nc4C)CC3)cc2c1=O` [Compound 186] came in with an IC50 at PARP1 of less than 0.1 µM.

In turn, `CCn1c(=O)[nH]c2cc(CN3CCN(c4ccc(NC(C)=O)nc4C)CC3)sc2c1=O` [Compound 528, N-(5-(4-((3-ethyl-2,4-dioxo-1,2,3,4-tetrahydrothieno[3,2-d]pyrimidin-6-yl)methyl)piperazin-1-yl)-6-methylpyridin-2-yl)acetamide] showed an IC50 on PARP1 of less than 0.1 µM.

Consider `CNC(=O)c1ccc(N2CCN(Cc3ccc4c(=O)[nH]c(=O)[nH]c4c3)CC2)cn1` [Compound 1, 5-(4-((2,4-dioxo-1,2,3,4-tetrahydroquinazolin-7-yl)methyl)piperazin-1-yl)-N-methylpicolinamide formate], for which the inhibition at 10 µM at recombinant human PARP2 is 33 to 67%. Further, on PARP1, the IC50 was 0.1 to 3 µM.

At PARP1, `CCn1c(=O)[nH]c2cc(CN3CCN(c4ccc(C(=O)NC)nc4C)CC3=O)sc2c1=O` [Compound 305, 5-(4-((3-ethyl-2,4-dioxo-1,2,3,4-tetrahydrothieno[3,2-d]pyrimidin-6-yl)methyl)-3-oxopiperazin-1-yl)-N,6-dimethylpicolinamide] gave an IC50 of less than 0.1 µM.

For the compound `CCn1c(=O)[nH]c2cc(CN3CCN(c4ccc(C(=O)NC#N)nc4C)CC3)sc2c1=O` [Compound 313, N-cyano-5-(4-((3-ethyl-2,4-dioxo-1,2,3,4-tetrahydrothieno[3,2-d]pyrimidin-6-yl)methyl)piperazin-1-yl)-6-methylpicolinamide, ammonia salt], at recombinant human PARP2, the IC50 is more than 3 µM and the inhibition at 10 µM was in the range of 33 to 67%. For the same compound, the IC50 at PARP1 is 0.1 to 3 µM.
